# Where a name gives a salt, the structure may show the parent alone. Read-outs that look alike come from different tables or passages of the source. Non-standard residues stand in square brackets, D forms with d. Residues, ends and D or L forms follow the SMILES beside them. *: point of attachment. NH(4-picolyl) = c1cc(CN*)ccn1; dNle = CCCC[C@@H](N)C(=O)O
# Experiments:
# [1] = Urinary excretion of CR665 after single IV infusion in human subjects; type: in vivo; settings: for CL renal / dose excreted: human; for CL renal: urine and plasma, read-out: CLR 0-24 h; for dose excreted / Ae0-24 h: urine; for dose excreted: iv
# Experimental: The lower limit of quantification was 1 ng/mL.
# Urine was collected into standard weight polyethylene containers over the following time intervals: Pre dose (−24 to 0), 0 to 4, 4 to 8, 8 to 12, 12 to 24 and 24 to 48 hours after the start of the infusion. During each collection period, the containers were stored in a refrigerator at 2 to 8° C. The weight (g) of each collection was recorded prior to removal of two sub samples (each approximately 4 mL) into suitably labeled polypropylene containers, which were stored within 2 hours of collection, at approximately −20° C. Additional aliquots (1×100 mL per collection period) were stored for possible future analyses. Any remaining urine from post dose collection intervals was pooled with the rest of the urine collected during the 0 to 24 hour collection period, for analysis of creatinine clearance. A nominal value for specific gravity of 1.018 was used to calculate urine volume.
# [2] = Safety and tolerability of ascending single IV doses in human subjects; type: in vivo
# Text: In each group, subjects received CR665 or placebo.
# The condition of each subject was monitored throughout the study.
# Subjects were also encouraged to spontaneously report adverse events occurring at any other time during the study. Any adverse events and remedial action required were to be recorded for each subject. The nature, time of onset, duration and severity were documented, together with the Project Physician's opinion of the relationship to drug administration.
# The condition of the dosing cannula site for each subject was monitored for erythema, pruritus and swelling at the following times: Pre dose, 0.5, 1, 2 and 24 hours after the start of the infusion. Subjects were also encouraged to spontaneously report adverse events relating to the infusion site at any other time during the study. Any adverse events and observations relating to the infusion site and remedial action required were to be recorded for each subject. The nature, time of onset, duration, and severity were to be documented, together with the Project Physician's opinion of the relationship to drug administration.
# Supine and standing blood pressure, supine pulse rate and oral body temperature were measured in duplicate at the following times: Day 1; Pre dose, 15 minutes (Part B only), 30 minutes, 55 minutes, 1.5, 2, 2.5, 3, 4, 8, 12, 24 and 48 hours after the start of the infusion (up to 24 hours only for Groups A1 to A4); and at Follow up visit. Supine vital signs only were measured during the infusion period. Pre dose blood pressure and pulse rate were measured in triplicate at approximately 2 minute intervals. The median value was used as the baseline value in the data analysis. All subsequent measurements were performed singly, but repeated in duplicate if outside the relevant clinical reference ranges. If repeated, the median of the three values were used in the data analysis. Blood pressure and pulse rate were measured using automated Critikon Dinamap™ PRO 400 monitors. Subjects were required to be supine for at least 5 minutes before blood pressure and pulse rate measurements. Standing blood pressure and pulse rate were then measured singly after the subject had been sitting for approximately 1 minute and then standing for approximately 2 minutes. Oral body temperature was measured singly using an Omron digital thermometer. To assess drug effects on cardiovascular function, a 12 lead resting ECG with a 10 second rhythm strip was recorded on a Marquette MAC5000 ECG machine at the following times, after the subject has been supine for at least 5 minutes: Day 1; Pre dose, 50 minutes, 2, 4, 8, 24 and 48 hours after the start of the infusion (up to 24 hours only for Groups A1 to A4); and at the follow up visit. The ECG machine computed the PR, QT and QTc intervals, QRS duration, and heart rate. The QT interval was corrected for heart rate (QTc) using Bazett's formula. For continuous ECG measurements, continuous cardiac Holter monitoring of each subject, using Reynolds Tracker II Holter monitors, was performed from 1 hour prior to until 4 hours after the start of the infusion. Blood and urine samples were collected, after at least a 6 hour fast, for clinical laboratory evaluations at the following times during the study: Pre dose and 24 hours after the start of the infusion; and at the follow up visit.
# After collection of urine samples, following removal of the aliquots for drug assay and/or urinalysis, urine was pooled over the following time intervals: 24 to 0 hours and 0 to 24 hours after the start of the infusion. A 10 mL aliquot was removed from the each pooled collection for determination of urinary creatinine.
# An assessment of fluid balance (made by comparison of volume of fluid consumed and volume of fluid excreted) was made over the following periods: 24 to 0 hours and 0 to 24 hours after the start of the infusion. During these periods, the volume of fluid consumed and the volume of urine excreted was recorded. […]
smiles,measurement,setting,value
"CCCC[C@@H](NC(=O)[C@@H](Cc1ccccc1)NC(=O)[C@H](N)Cc1ccccc1)C(=O)N[C@H](CCCNC(=N)N)C(=O)NCc1ccncc1 [CR665, D-phenylalanyl-D-phenylalanyl-D-norleucyl-N-(4-pyridinylmethyl)-D-argininamide, acetate salt] (H-[dF][dF][dNle][dR]-{NH(4-picolyl)})",CL renal,"[1]; female, females, 0.06 mg/kg, 5-minute IV infusion, geometric mean",20.9 mL/min
same,CL renal,"[1]; female, females, 0.24 mg/kg, 1 hour IV infusion, geometric mean",16.8 mL/min
same,dose excreted,"[1]; female, 0.06 mg/kg, females, 0.06 mg/kg, 5-minute IV infusion, geometric mean, read-out: fe0-24 h",3.83%
same,dose excreted,"[1]; female, 0.06 mg/kg, females, 5-minute infusion, read-out: Fraction of unchanged drug excreted in the urine",3.8%
same,dose excreted,"[1]; female, 0.06 mg/kg, females, 5-minute infusion, read-out: fe0-24 h, geometric least squares mean",3.83%
same,dose excreted,"[1]; female, 0.24 mg/kg, females, 0.24 mg/kg, 1 hour IV infusion, geometric mean, read-out: fe0-24 h",3.02%
same,dose excreted,"[1]; female, 0.24 mg/kg, females, 1-hour infusion, read-out: fe0-24 h, geometric least squares mean",2.7%
same,"fe0-24 h, ratio of geometric least squares means 5-minute:1-hour",[1]; females,1.42
same,Ae0-24 h,"[1]; females, 0.06 mg/kg, 5-minute IV infusion, geometric mean",153 µg
same,Ae0-24 h,"[1]; females, 0.24 mg/kg, 1 hour IV infusion, geometric mean",446 µg
same,CL renal,"[1]; male, males, 0.03 mg/kg, 5-minute IV infusion, geometric mean",17.1 mL/min
same,CL renal,"[1]; male, males, 0.06 mg/kg, 5-minute IV infusion, geometric mean",18.4 mL/min
same,CL renal,"[1]; male, males, 0.09 mg/kg, 5-minute IV infusion, geometric mean",20.5 mL/min
same,CL renal,"[1]; male, males, 0.24 mg/kg, 1 hour IV infusion, geometric mean",22 mL/min
same,dose excreted,"[1]; male, 0.03 mg/kg, males, 0.03 mg/kg, 5-minute IV infusion, geometric mean, read-out: fe0-24 h",3.6%
same,dose excreted,"[1]; male, 0.06 mg/kg, males, 0.06 mg/kg, 5-minute IV infusion, geometric mean, read-out: fe0-24 h",3.33%
same,dose excreted,"[1]; male, 0.09 mg/kg, males, 0.09 mg/kg, 5-minute IV infusion, geometric mean, read-out: fe0-24 h",3.56%
same,dose excreted,"[1]; male, 0.24 mg/kg, males, 0.24 mg/kg, 1 hour IV infusion, geometric mean, read-out: fe0-24 h",3.5%
same,dose excreted,"[1]; male, males, 1-hour infusion, Parts A & B, read-out: fe0-24 h, geometric least squares mean",3.46%
same,dose excreted,"[1]; male, males, 5-minute infusion, Parts A & B, read-out: fe0-24 h, geometric least squares mean",3.48%
same,dose excreted,"[1]; male, males, all dose levels, 5-minute infusion, up to 24 hours post-dose, read-out: Fraction of the dose excreted in the urine as unchanged drug",~3.5%
same,"fe0-24 h, ratio of geometric least squares means 5-minute:1-hour",[1]; males,1.01
same,Ae0-24 h,"[1]; males, 0.03 mg/kg, 5-minute IV infusion, geometric mean",70.0 µg
same,Ae0-24 h,"[1]; males, 0.06 mg/kg, 5-minute IV infusion, geometric mean",157 µg
same,Ae0-24 h,"[1]; males, 0.09 mg/kg, 5-minute IV infusion, geometric mean",262 µg
same,Ae0-24 h,"[1]; males, 0.24 mg/kg, 1 hour IV infusion, geometric mean",631 µg
same,Fluid balance (urine excreted-fluid consumed),[2]; 0 to 24 hour after start of infusion,no apparent treatment or dose related trends
same,12-lead ECG evaluations,[2]; Parts A and B,"no treatment related trends, significant clinical changes, or abnormalities in the morphology of the 12 lead ECG"
same,Creatinine clearance estimated from serum creatinine,[2]; Parts A and B,no clinically important changes
same,"Supine and standing blood pressure, pulse rate, oral body temperature",[2]; Parts A and B,no treatment or dose related trends
same,Severe or serious adverse events,"[2]; all 54 subjects, all dose levels",no severe or serious adverse events
same,QTc interval (Bazett's and Friedericia's corrected),"[2]; each dose level, male and female subjects",no evidence of prolongation of QTc interval
same,CNS symptoms (hallucinations or dysphoria),[2]; even at the highest dose levels,no signs of the more typical CNS symptoms
same,Volume of urine excreted compared to placebo,"[2]; first 4 hours after start of infusion, each dose level, male and female, Parts A and B",increase
same,"Clinical laboratory evaluations (serum biochemistry, hematology, urinalysis)","[2]; human, in vivo",no treatment related trends or significant clinical findings
same,Physical examination,"[2]; human, in vivo",no treatment related findings
